Experiments:
[1] = xn = mol fraction of the nth substance listed; settings: 298.15 K, 101 kPa, Liquid
[2] = 298.15 K; 101 kPa; Liquid

CN1CCCC1=O [N-methylpyrrolidone] + O
[1]
Settings | mass density [kg/m3] | speed of sound [m/s]
x1 = 0.02533 | 1004.51 | 1573.6
x1 = 0.06006 | 1014.28 | 1646.8
x1 = 0.08026 | 1020.63 | 1684.4
x1 = 0.1008 | 1025.71 | 1724.7
x1 = 0.1191 | 1030.16 | 1731.2
x1 = 0.1399 | 1034.69 | 1745.2
x1 = 0.1596 | 1038.09 | 1747.7
x1 = 0.1779 | 1040.14 | 1749.2
x1 = 0.1964 | 1041.52 | 1751.7
x1 = 0.2203 | 1042.98 | 1750.7
x1 = 0.2399 | 1044.35 | 1750.1
x1 = 0.2602 | 1045.7 | 1745.3
x1 = 0.278 | 1046 | 1741.8
x1 = 0.2987 | 1046.27 | 1735.4
x1 = 0.3296 | 1046.23 | 1725.6
x1 = 0.3794 | 1045.76 | 1707.8
x1 = 0.4497 | 1044.33 | 1687.1
x1 = 0.4986 | 1043.54 | 1670
x1 = 0.5494 | 1041.35 | 1651.2
x1 = 0.5978 | 1039.92 | 1633.6
x1 = 0.649 | 1037.65 | 1621
x1 = 0.6998 | 1035.76 | 1610.2
x1 = 0.7893 | 1032.74 | 1587.7
x1 = 0.8199 | 1031.82 | 1574.4
x1 = 0.8333 | 1031.01 | 1568.3
x1 = 0.8826 | 1030.54 | 1563.8
x1 = 0.8976 | 1029.93 | 1558.4
x1 = 0.9553 | 1028.92 | 1552.2
x1 = 1 | 1028.23 | 1531.5

CN(C)C=O [dimethylformamide]
[2]
Settings | mass density [kg/m3] | speed of sound [m/s]
– | 943.94 | 1457.5

CN(C)C=O [dimethylformamide] + O
[1]
Settings | mass density [kg/m3] | speed of sound [m/s]
x1 = 0.01233 | 996.44 | 1526.3
x1 = 0.0266 | 996.21 | 1555.7
x1 = 0.0276 | 996.23 | 1554.2
x1 = 0.04154 | 996.18 | 1582.3
x1 = 0.05803 | 996.38 | 1607.4
x1 = 0.07593 | 996.62 | 1628.8
x1 = 0.09542 | 996.84 | 1647.5
x1 = 0.1173 | 997.02 | 1659
x1 = 0.1412 | 996.93 | 1675.5
x1 = 0.1677 | 996.02 | 1684.6
x1 = 0.1975 | 995.1 | 1688.2
x1 = 0.23 | 993.87 | 1687.8
x1 = 0.2866 | 990.18 | 1676.6
x1 = 0.3139 | 989.17 | 1669.3
x1 = 0.3771 | 984.28 | 1647.7
x1 = 0.4247 | 981.19 | 1629.1
x1 = 0.4494 | 979.47 | 1620.3
x1 = 0.4755 | 977.79 | 1610.1
x1 = 0.4955 | 976.4 | 1599.5
x1 = 0.5203 | 974.98 | 1592
x1 = 0.5336 | 974.17 | 1585.7
x1 = 0.555 | 972.69 | 1572.1
x1 = 0.5806 | 970.92 | 1565.8
x1 = 0.6169 | 968.9 | 1559
x1 = 0.637 | 967.32 | 1550.5
x1 = 0.6551 | 965.83 | 1545.2
x1 = 0.6931 | 963.35 | 1538.2
x1 = 0.7172 | 961.78 | 1527.7
x1 = 0.7373 | 960.6 | 1519.7
x1 = 0.753 | 959.56 | 1514.8
x1 = 0.7666 | 958.73 | 1512.3
x1 = 0.8037 | 956.19 | 1504.3
x1 = 0.8126 | 955.54 | 1501.2
x1 = 0.8469 | 953.57 | 1493
x1 = 0.8694 | 952.12 | 1491.4
x1 = 0.8911 | 950.68 | 1488.4
x1 = 0.925 | 948.01 | 1476.6
x1 = 0.9661 | 946.28 | 1469.1
x1 = 1 | 943.94 | 1457.5

NC=O [formamide]
[2]
Settings | mass density [kg/m3] | speed of sound [m/s]
– | 1128.78 | 1597.3

NC=O [formamide] + O
[1]
Settings | mass density [kg/m3] | speed of sound [m/s]
x1 = 0.01258 | 1001.58 | 1507
x1 = 0.01991 | 1004.13 | 1512.2
x1 = 0.0361 | 1009.48 | 1522.8
x1 = 0.05028 | 1013.93 | 1530.9
x1 = 0.06473 | 1018.25 | 1538.3
x1 = 0.07977 | 1022.53 | 1545.1
x1 = 0.09437 | 1026.49 | 1551
x1 = 0.1125 | 1031.16 | 1557.5
x1 = 0.1347 | 1036.54 | 1564.5
x1 = 0.1596 | 1042.19 | 1571
x1 = 0.1946 | 1049.41 | 1578.3
x1 = 0.2295 | 1056.08 | 1584.1
x1 = 0.2548 | 1060.55 | 1587.5
x1 = 0.2731 | 1063.6 | 1589.5
x1 = 0.2919 | 1066.61 | 1591.4
x1 = 0.3343 | 1072.9 | 1594.7
x1 = 0.3711 | 1077.91 | 1596.7
x1 = 0.4046 | 1082.13 | 1598.1
x1 = 0.4552 | 1088.06 | 1599.4
x1 = 0.4884 | 1091.6 | 1600
x1 = 0.5025 | 1093.05 | 1600.2
x1 = 0.5225 | 1094.97 | 1600.3
x1 = 0.5564 | 1098.27 | 1600.5
x1 = 0.595 | 1101.68 | 1600.5
x1 = 0.6298 | 1104.65 | 1600.5
x1 = 0.6714 | 1107.95 | 1600.2
x1 = 0.702 | 1110.28 | 1600
x1 = 0.723 | 1111.82 | 1599.8
x1 = 0.7544 | 1113.99 | 1599.6
x1 = 0.78 | 1115.76 | 1599.4
x1 = 0.8094 | 1117.67 | 1599.1
x1 = 0.8358 | 1119.42 | 1598.8
x1 = 0.8752 | 1121.79 | 1598.6
x1 = 0.917 | 1124.23 | 1598.2
x1 = 0.9465 | 1125.98 | 1598
x1 = 0.9702 | 1127.29 | 1597.9
x1 = 1 | 1128.78 | 1597.3

— the NIST ThermoML archive (doi:10.1016/j.jct.2007.05.015)
